Measured values as given in PubChem BioAssay AID248 (DTP/NCI, 2004).
Values joined by “and” are separate entries in the source; they are usually repeats but may differ in a detail not shown here. Equal values may be shown once. Toxic doses and inconclusive results are not listed. No stated cut-off is given here; in the data, active means T/C of 150% or more; inactive means T/C below 125%.

Tested on: L1210 leukemia ip in BDF1 mice, survival T/C
Experiment: NCI In Vivo Anticancer Drug Screen. Data for tumor model L1210 Leukemia (intraperitoneal) in B6D2F1 (BDF1) mice
Conditions: endpoint: mean survival time, higher = longer survival
Outline: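 In this screen, tumor-bearing mice given compound are compared to those given vehicle, and their survival values are reported as a treated-to-control quotient.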

[1] = dose: 100.0 mg/kg/injection, schedule: Q04DX002 (ip), vehicle: Klucel (hydroxypropylcellulose) (HPC)
[2] = dose: 200.0 mg/kg/injection, schedule: Q04DX002 (ip), vehicle: Klucel (hydroxypropylcellulose) (HPC)
[3] = dose: 100.0 mg/kg/injection, schedule: Q04DX003 (ip), vehicle: saline
[4] = dose: 200.0 mg/kg/injection, schedule: Q04DX003 (ip), vehicle: saline
[5] = dose: 400.0 mg/kg/injection, schedule: Q04DX003 (ip), vehicle: saline
[6] = dose: 25.0 mg/kg/injection, schedule: Q01DX009 (ip), vehicle: water
[7] = dose: 100.0 mg/kg/injection, schedule: Q04DX003 (ip), vehicle: water
[8] = dose: 25.0 mg/kg/injection, schedule: Q01DX009 (ip), vehicle: saline with Tween-80
[9] = dose: 50.0 mg/kg/injection, schedule: Q01DX009 (ip), vehicle: saline with Tween-80
[10] = dose: 400.0 mg/kg/injection, schedule: Q04DX002 (ip), vehicle: Klucel (hydroxypropylcellulose) (HPC)
[11] = dose: 100.0 mg/kg/injection, schedule: Q01DX009 (ip), vehicle: Klucel (hydroxypropylcellulose) (HPC)

Measured: T/C

CC(=O)NC1Cc2cc(C)cc(C)c21 (stereo not drawn)
inactive: dose: 50.0 mg/kg/injection, schedule: Q04DX002 (ip), vehicle: Klucel (hydroxypropylcellulose) (HPC) 105 % of control | [1] 102 % of control | [2] 98 % of control

O=C(NO)c1ccc(C(=O)NO)c(Br)c1
inactive: dose: 100.0 mg/kg/injection, schedule: Q01DX009 (ip), vehicle: saline 103 % of control | [3] 107 % of control | dose: 200.0 mg/kg/injection, schedule: Q01DX009 (ip), vehicle: saline 112 % of control | [4] 107 % of control | dose: 400.0 mg/kg/injection, schedule: Q01DX009 (ip), vehicle: saline 108 % of control | [5] 105 % of control

COC(=O)/C(C)=C/CC(C)C(=O)OC (stereo not drawn)
inactive: dose: 50.0 mg/kg/injection, schedule: Q01DX001 (ip), vehicle: saline 102 % of control | dose: 100.0 mg/kg/injection, schedule: Q01DX001 (ip), vehicle: saline 96 % of control | dose: 200.0 mg/kg/injection, schedule: Q01DX001 (ip), vehicle: saline 105 % of control

CC(C)=CCC/C(C)=C/CN1C(=O)C=CC1=O
inactive: dose: 12.5 mg/kg/injection, schedule: Q01DX009 (ip), vehicle: water 91 % of control | [6] 86 % of control | dose: 25.0 mg/kg/injection, schedule: Q04DX003 (ip), vehicle: water 97 % of control | dose: 50.0 mg/kg/injection, schedule: Q04DX003 (ip), vehicle: water 98 % of control | [7] 104 % of control

CN(C)CCOc1cccc(OCCN(C)C)n1
inactive: dose: 12.5 mg/kg/injection, schedule: Q01DX009 (ip), vehicle: saline with Tween-80 104 % of control | [8] 103 % of control | dose: 25.0 mg/kg/injection, schedule: Q04DX003 (ip), vehicle: saline with Tween-80 96 % of control | [9] 103 % of control | dose: 50.0 mg/kg/injection, schedule: Q04DX003 (ip), vehicle: saline with Tween-80 96 % of control | dose: 100.0 mg/kg/injection, schedule: Q04DX003 (ip), vehicle: saline with Tween-80 100 % of control

CC1(C)C2CCC1(C)C(OCC(=O)O)C2 (stereo not drawn)
inactive: [1] 96 % of control | [2] 121 % of control | [10] 102 % of control

O=C(Cc1cccc2ccccc12)N/N=C/c1cccc([N+](=O)[O-])c1
inactive: [11] 88 % of control | [1] 93 % of control | dose: 200.0 mg/kg/injection, schedule: Q01DX009 (ip), vehicle: Klucel (hydroxypropylcellulose) (HPC) 93 % of control | [2] 89 % of control | [10] 96 % of control

N#CCCC(CCC#N)(S(=O)(=O)Cc1ccccc1)S(=O)(=O)Cc1ccccc1
inactive: dose: 100.0 mg/kg/injection, schedule: Q01DX001 (ip), vehicle: carboxymethylcellulose (CMC) 101 % of control | dose: 200.0 mg/kg/injection, schedule: Q01DX001 (ip), vehicle: carboxymethylcellulose (CMC) 101 % of control | dose: 400.0 mg/kg/injection, schedule: Q01DX001 (ip), vehicle: carboxymethylcellulose (CMC) 89 % of control

O=C(Nc1ccccn1)Nc1ccc([N+](=O)[O-])cc1[N+](=O)[O-]
inactive: [1] 108 % of control | [2] 104 % of control | [10] 97 % of control

CC1CN(Cc2ccccc2)CC(C)N1 (stereo not drawn)
inactive: [6] 95 % of control | dose: 50.0 mg/kg/injection, schedule: Q01DX009 (ip), vehicle: water 95 % of control | dose: 100.0 mg/kg/injection, schedule: Q01DX009 (ip), vehicle: water 104 % of control | [7] 110 % of control | dose: 200.0 mg/kg/injection, schedule: Q04DX003 (ip), vehicle: water 115 % of control

c1ccc2c[n+](CCCCCCCCCC[n+]3ccc4ccccc4c3)ccc2c1
inactive: dose: 1.0 mg/kg/injection, schedule: Q01DX009 (ip), vehicle: saline 106 % of control | dose: 2.0 mg/kg/injection, schedule: Q01DX009 (ip), vehicle: saline 97 % of control | dose: 4.0 mg/kg/injection, schedule: Q01DX009 (ip), vehicle: saline 92 % of control | dose: 8.0 mg/kg/injection, schedule: Q04DX003 (ip), vehicle: saline 97 % of control | dose: 16.0 mg/kg/injection, schedule: Q04DX003 (ip), vehicle: saline 92 % of control | dose: 32.0 mg/kg/injection, schedule: Q04DX003 (ip), vehicle: saline 89 % of control

CC1C/C(=N/NC(=O)OC(C)(C)C)CC(C)(C)C1 (stereo not drawn)
inactive: dose: 100.0 mg/kg/injection, schedule: Q01DX009 (ip), vehicle: gum acacia 96 % of control | dose: 200.0 mg/kg/injection, schedule: Q01DX009 (ip), vehicle: gum acacia 89 % of control | dose: 400.0 mg/kg/injection, schedule: Q01DX009 (ip), vehicle: gum acacia 87 % of control

N=C(N)c1ccc(OCCCCOc2ccc(N)cc2Cl)cc1
inactive: dose: 50.0 mg/kg/injection, schedule: Q01DX009 (ip), vehicle: Klucel (hydroxypropylcellulose) (HPC) 111 % of control | [11] 97 % of control

CC(C)S.[Pb]
inactive: dose: 100.0 mg/kg/injection, schedule: Q04DX002 (ip), vehicle: gum acacia 100 % of control | dose: 200.0 mg/kg/injection, schedule: Q04DX002 (ip), vehicle: gum acacia 100 % of control | dose: 400.0 mg/kg/injection, schedule: Q04DX002 (ip), vehicle: gum acacia 89 % of control

CC(=O)OC1CCP(C)(=O)C1 (stereo not drawn)
inactive: [3] 98 % of control | [4] 96 % of control | [5] 93 % of control

CCCCNC1=C(N2CC2)C(=O)C(NCCCC)=C(N2CC2)C1=O
inactive: dose: 1.25 mg/kg/injection, schedule: Q01DX001 (ip), vehicle: saline 105 % of control | dose: 1.25 mg/kg/injection, schedule: Q01DX009 (ip), vehicle: saline 110 % of control and 111 % of control | dose: 1.56 mg/kg/injection, schedule: Q04DX003 (ip), vehicle: Klucel (hydroxypropylcellulose) (HPC) 113 % of control | dose: 2.5 mg/kg/injection, schedule: Q01DX001 (ip), vehicle: saline 100 % of control | dose: 2.5 mg/kg/injection, schedule: Q01DX009 (ip), vehicle: saline 105 % of control and 109 % of control | dose: 3.12 mg/kg/injection, schedule: Q04DX003 (ip), vehicle: Klucel (hydroxypropylcellulose) (HPC) 121 % of control | dose: 5.0 mg/kg/injection, schedule: Q01DX001 (ip), vehicle: saline 98 % of control | dose: 5.0 mg/kg/injection, schedule: Q01DX009 (ip), vehicle: saline 118 % of control | dose: 10.0 mg/kg/injection, schedule: Q01DX001 (ip), vehicle: saline 105 % of control | dose: 10.0 mg/kg/injection, schedule: Q01DX009 (ip), vehicle: saline 114 % of control | dose: 12.5 mg/kg/injection, schedule: Q04DX003 (ip), vehicle: Klucel (hydroxypropylcellulose) (HPC) 110 % of control | dose: 18.0 mg/kg/injection, schedule: Q04DX003 (ip), vehicle: Klucel (hydroxypropylcellulose) (HPC) 112 % of control

C1=C\C2CC2CCCC/1 (stereo not drawn)
inactive: dose: 12.5 mg/kg/injection, schedule: Q01DX005 (ip), vehicle: saline with Tween-80 86 % of control | dose: 25.0 mg/kg/injection, schedule: Q01DX005 (ip), vehicle: saline with Tween-80 96 % of control | [8] 98 % of control | dose: 50.0 mg/kg/injection, schedule: Q01DX005 (ip), vehicle: saline with Tween-80 89 % of control | [9] 94 % of control | dose: 100.0 mg/kg/injection, schedule: Q01DX009 (ip), vehicle: saline with Tween-80 102 % of control

Cc1ccc(C(=O)CC(=O)Nc2cc([N+](=O)[O-])ccc2OCCOc2ccc(C(C)(C)CC(C)(C)C)cc2)cc1
inactive: dose: 100.0 mg/kg/injection, schedule: Q01DX009 (ip), vehicle: saline sonified 100 % of control | dose: 100.0 mg/kg/injection, schedule: Q04DX003 (ip), vehicle: Klucel (hydroxypropylcellulose) (HPC) 112 % of control | dose: 200.0 mg/kg/injection, schedule: Q01DX009 (ip), vehicle: saline sonified 97 % of control | dose: 200.0 mg/kg/injection, schedule: Q04DX003 (ip), vehicle: Klucel (hydroxypropylcellulose) (HPC) 89 % of control | dose: 400.0 mg/kg/injection, schedule: Q01DX009 (ip), vehicle: saline sonified 87 % of control | dose: 400.0 mg/kg/injection, schedule: Q04DX003 (ip), vehicle: Klucel (hydroxypropylcellulose) (HPC) 94 % of control
